{"source": "patent US20120183660A1", "about": "“ISOMANNIDE DERIVATIVES AND THEIR USE AS TASTANTS” (Senomyx, Inc., priority 2009, published 2012)", "test_system": "un-induced I-17 cells", "test": "FLIPR assay on un-induced I-17 cells (no mifepristone induction of receptor expression)", "type": "cell-based", "conditions": "compounds at 10 μM—or three times the maximum stimulation used in the dose-response analysis", "method": "In order to determine the dependency of hT1R1/hT1R3 for the cell response to different stimuli, selected compounds were subjected to a similar analysis on I-17 cells that had not been induced for receptor expression with mifepristone (designated as un-induced I-17 cells). […] Compounds were presented to un-induced umami cells at […]—or three times the maximum stimulation used in the dose-response analysis."}
{"smiles": "N[C@@H](CCC(=O)O)C(=O)[O-].[Na+]", "note": "[monosodium glutamate]", "values": [{"measurement": "functional response in the FLIPR assay on un-induced umami cells", "result": "do not show any functional response"}]}
